# Measurements published in patent US11129897B2, “Fast-acting plant-based medicinal compounds and nutritional supplements” (RECEPTOR HOLDINGS, INC., priority 2016, dated 2021).
# Experiments:
# [1] = versus molecule without SNAC; in words; cited from earlier work
# study participants [2] = test: Onset and duration of action of orally administered Cannabis/SNAC composition (Example 2, 200 mg SNAC); format: in vivo, human; conditions: oral; 200 mg SNAC with Cannabis concentrate (8 mg THC)
# Protocol: This study was designed to assess the utility of SNAC in enabling a rapid-acting oral form of Cannabis.
# Selection of Participants. Six study participants were recruited to ingest Cannabis compositions and record the onset, duration, and intensity of Cannabis-induced euphoria and/or dysphoria.
# (§1) Formulations. The selected Cannabis concentrate is commercially available and was provided to participants in an ethanol solution. The concentrate contains 8 mg THC per dose. It was selected because it contains a high percentage of THC, which provides a noticeable effect on user-reported “euphoria”.
# (§2) Methods. For the Control experiment, each participant mixed the Cannabis concentrate with 15 ml (one tablespoon) of aqueous ethanol, and immediately swallowed the mixture.
# For both the Control experiment and the Test experiment, each participant recorded the time of dose administration, the time of onset of euphoria and/or dysphoria, and the observed level of euphoria and/or dysphoria in fifteen minute intervals for five hours following administration of the Cannabis dose. Euphoria and dysphoria were reported using a scale value, in a range from 1-10.
# study participants [3] = test: Onset and duration of action of orally administered Cannabis/SNAC composition at a low SNAC dose (Example 3, 100 mg SNAC); format: in vivo, human; conditions: oral; 100 mg SNAC with Cannabis concentrate (8 mg THC)
# Protocol: This study was designed to assess the utility of SNAC in enabling a rapid-acting oral form of Cannabis at a low dose.
# Selection of Participants. Three study participants were recruited to ingest Cannabis compositions and record the onset, duration, and intensity of Cannabis-induced euphoria and/or dysphoria.
# as §1, §2
# For both the Control experiment and the Test experiment, each participant recorded the time of dose administration, the time of onset of euphoria and/or dysphoria, and the observed level of euphoria and/or dysphoria in fifteen minute intervals for five hours following administration of the Cannabis dose. Euphoria and dysphoria were reported using a scale value, in a range from 1-5.
# [4] = cited from earlier work
Molecule,"absorption when co-administered with an N-acylated fatty amino acid (e.g., SNAC) [1]",also measured
heparin,improved absorption,–
vitamin B12,improved absorption,–
MT-II,improved absorption,–
sodium N-[8-(2-hydroxybenzoyl) amino] caprylate [SNAC],–,effect of the absorption enhancer on the duration of action of Cannabis (study participants [2]): no effect on the duration of action; effect of the absorption enhancer on the duration of action of Cannabis (study participants [3]): no effect on the duration of action
"CCCCCc1cc(O)c2c(c1)OC(C)(C)[C@@H]1CCC(C)=C[C@@H]21 [THC, delta-9-tetrahydrocannabinol]",–,"appetite stimulant effect may continue after administration ([4]; after oral administration): ≥ 24 h; duration of action for psychoactive effects ([4]; after oral administration): 4 to 6 h; peak effect (time) ([4]; after oral administration): 2 to 4 h; administered dose that reaches the systemic circulation ([4]; oral, first pass hepatic metabolism and poor aqueous solubility): 10-20%"
"peptide yy: peptide yy, water-soluble molecule with SNAC-improved absorption",improved absorption,–
"GLP-1: GLP-1, water-soluble molecule with SNAC-improved absorption",improved absorption,–
CCCCCN(C)CCC(O)(P(=O)(O)O)P(=O)(O)O [ibandronate],improved absorption,–
rhGH: recombinant human growth hormone,improved absorption,–
"calcitonin: calcitonin, water-soluble molecule with SNAC-improved absorption",improved absorption,–
PTH 1-34: parathyroid hormone 1-34,improved absorption,–
